Source: the supplement of paper PMC10307832

Assays:
Experiment in all cases: relative viability (nuclei count vs DMSO), 5 days (fraction); higher = more cells survive
ABC-1 = test system: ABC-1
Summary of the method: (§1)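 Cells from lung cancer lines were seeded into 1536-well plates and, one day later, dosed by pin tool. Treatments were either a single drug or a fixed dose of an anchor drug with five library-drug doses (not always all listed) in √10 steps. After 5 days, nuclei were stained in a one-step fixation (final 0.05% Triton X-100, 1% formaldehyde, 1 ug/ml Hoechst) and counted on 4× images, and relative viability is the treated-to-vehicle nuclei ratio, as the median of duplicate plates.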

CAL-12T = test system: CAL-12T
Summary of the method: as §1

COR-L23 = test system: COR-L23
Summary of the method: as §1

EKVX = test system: EKVX
Summary of the method: as §1

H3255 = test system: H3255
Summary of the method: as §1

HCC-15 = test system: HCC-15
Summary of the method: as §1

HCC-827 = test system: HCC-827
Summary of the method: as §1

LK-2 = test system: LK-2
Summary of the method: as §1

NCI-H1355 = test system: NCI-H1355
Summary of the method: as §1

NCI-H1437 = test system: NCI-H1437
Summary of the method: as §1

NCI-H1563 = test system: NCI-H1563
Summary of the method: as §1

NCI-H1734 = test system: NCI-H1734
Summary of the method: as §1

NCI-H2228 = test system: NCI-H2228
Summary of the method: as §1

NCI-H2405 = test system: NCI-H2405
Summary of the method: as §1

NCI-H322M = test system: NCI-H322M
Summary of the method: as §1

NCI-H520 = test system: NCI-H520
Summary of the method: as §1

NCI-H661 = test system: NCI-H661
Summary of the method: as §1

PC-14 = test system: PC-14
Summary of the method: as §1

PC-3 [JPC-3] = test system: PC-3 [JPC-3]
Summary of the method: as §1

RERF-LC-KJ = test system: RERF-LC-KJ
Summary of the method: as §1

SW 1573 = test system: SW 1573
Summary of the method: as §1

Oc1nc(-c2ccc(C(F)(F)F)cc2)nc2c1CSCC2 [XAV939] + C[C@]1(O)C[C@@H](c2nc(-c3ccc4ccc(-c5ccccc5)nc4c3)c3c(N)nccn32)C1 [Linsitinib] (partner 1 µM)
relative viability (ABC-1; first compound 0.08 µM): 0.915
relative viability (ABC-1; first compound 0.253 µM): 0.733
relative viability (ABC-1; first compound 0.8 µM): 0.809
relative viability (ABC-1; first compound 2.53 µM): 0.315
relative viability (CAL-12T; first compound 0.08 µM): 0.87
relative viability (CAL-12T; first compound 0.253 µM): 0.809
relative viability (CAL-12T; first compound 0.8 µM): 0.667
relative viability (CAL-12T; first compound 2.53 µM): 0.667
relative viability (COR-L23; first compound 0.08 µM): 0.962
relative viability (COR-L23; first compound 0.253 µM): 0.785
relative viability (COR-L23; first compound 0.8 µM): 0.969
relative viability (COR-L23; first compound 2.53 µM): 0.809
relative viability (EKVX; first compound 0.08 µM): 1.07
relative viability (EKVX; first compound 0.253 µM): 0.776
relative viability (EKVX; first compound 0.8 µM): 0.831
relative viability (EKVX; first compound 2.53 µM): 0.623
relative viability (H3255; first compound 0.08 µM): 0.981
relative viability (H3255; first compound 0.253 µM): 0.843
relative viability (H3255; first compound 0.8 µM): 1.05
relative viability (H3255; first compound 2.53 µM): 0.784
relative viability (HCC-15; first compound 0.08 µM): 0.923
relative viability (HCC-15; first compound 0.253 µM): 0.851
relative viability (HCC-15; first compound 0.8 µM): 0.859
relative viability (HCC-15; first compound 2.53 µM): 0.848
relative viability (HCC-827; first compound 0.08 µM): 0.995
relative viability (HCC-827; first compound 0.253 µM): 0.91
relative viability (HCC-827; first compound 0.8 µM): 0.952
relative viability (HCC-827; first compound 2.53 µM): 0.942
relative viability (LK-2; first compound 0.08 µM): 0.514
relative viability (LK-2; first compound 0.253 µM): 0.499
relative viability (LK-2; first compound 0.8 µM): 0.42
relative viability (LK-2; first compound 2.53 µM): 0.457
relative viability (NCI-H1355; first compound 0.08 µM): 0.867
relative viability (NCI-H1355; first compound 0.253 µM): 0.783
relative viability (NCI-H1355; first compound 0.8 µM): 0.82
relative viability (NCI-H1355; first compound 2.53 µM): 0.666
relative viability (NCI-H1437; first compound 0.08 µM): 1.21
relative viability (NCI-H1437; first compound 0.253 µM): 0.878
relative viability (NCI-H1437; first compound 0.8 µM): 0.873
relative viability (NCI-H1437; first compound 2.53 µM): 0.477
relative viability (NCI-H1563; first compound 0.08 µM): 1.2
relative viability (NCI-H1563; first compound 0.253 µM): 1.01
relative viability (NCI-H1563; first compound 0.8 µM): 1.07
relative viability (NCI-H1563; first compound 2.53 µM): 0.871
relative viability (NCI-H1734; first compound 0.08 µM): 0.841
relative viability (NCI-H1734; first compound 0.253 µM): 0.853
relative viability (NCI-H1734; first compound 0.8 µM): 0.961
relative viability (NCI-H1734; first compound 2.53 µM): 0.709
relative viability (NCI-H2228; first compound 0.08 µM): 0.684
relative viability (NCI-H2228; first compound 0.253 µM): 0.683
relative viability (NCI-H2228; first compound 0.8 µM): 0.81
relative viability (NCI-H2228; first compound 2.53 µM): 0.551
relative viability (NCI-H2405; first compound 0.08 µM): 1.01
relative viability (NCI-H2405; first compound 0.253 µM): 0.863
relative viability (NCI-H2405; first compound 0.8 µM): 0.96
relative viability (NCI-H2405; first compound 2.53 µM): 0.801
relative viability (NCI-H322M; first compound 0.08 µM): 0.966
relative viability (NCI-H322M; first compound 0.253 µM): 0.872
relative viability (NCI-H322M; first compound 0.8 µM): 0.909
relative viability (NCI-H322M; first compound 2.53 µM): 0.618
relative viability (NCI-H520; first compound 0.08 µM): 0.983
relative viability (NCI-H520; first compound 0.253 µM): 0.974
relative viability (NCI-H520; first compound 0.8 µM): 0.833
relative viability (NCI-H520; first compound 2.53 µM): 0.775
relative viability (NCI-H661; first compound 0.08 µM): 0.653
relative viability (NCI-H661; first compound 0.253 µM): 0.568
relative viability (NCI-H661; first compound 0.8 µM): 0.649
relative viability (NCI-H661; first compound 2.53 µM): 0.35
relative viability (PC-14; first compound 0.08 µM): 0.954
relative viability (PC-14; first compound 0.253 µM): 0.831
relative viability (PC-14; first compound 0.8 µM): 1.04
relative viability (PC-14; first compound 2.53 µM): 0.844
relative viability (PC-3 [JPC-3]; first compound 0.08 µM): 0.916
relative viability (PC-3 [JPC-3]; first compound 0.253 µM): 0.863
relative viability (PC-3 [JPC-3]; first compound 0.8 µM): 1
relative viability (PC-3 [JPC-3]; first compound 2.53 µM): 0.874
relative viability (RERF-LC-KJ; first compound 0.08 µM): 0.881
relative viability (RERF-LC-KJ; first compound 0.253 µM): 0.765
relative viability (RERF-LC-KJ; first compound 0.8 µM): 0.789
relative viability (RERF-LC-KJ; first compound 2.53 µM): 0.661
relative viability (SW 1573; first compound 0.08 µM): 0.78
relative viability (SW 1573; first compound 0.253 µM): 0.675
relative viability (SW 1573; first compound 0.8 µM): 0.739
relative viability (SW 1573; first compound 2.53 µM): 0.635
